“Also recorded” adds a separate entry of the source.
Key:
[1] = test system: CD4+ Treg vs CD4+ Tconv cells; test: STAT5 phosphorylation, selectivity / activity profile Treg versus CD4+ Tconv cells, human PBMC; format: cell-based
Procedure, shortened: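 Fresh human PBMC from a healthy donor, serum-starved 1 h at 4 °C, then exposed to serial dilutions of IL-2 variants for 30 min at 37 °C. After fixation/permeabilization, cells stained for CD4, CD25, FOXP3 and pSTAT5 and analysed by flow cytometry. Treg (CD4+/Foxp3+/CD25high) and Tconv (CD4+/Foxp3−/CD25low) gated; read-out is percent pSTAT5-positive cells.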

Treg cells [2] = test: Treg proliferation and expansion in mice after a single s.c. injection of bifunctional constructs (Example 17); format: in vivo, mouse; conditions: 15 nmol/kg single s.c.; for potency in inducing Treg cell proliferation and expansion in vivo (in words): C57/BL6 mice
Experimental: (§1) IL-2 variant tocilizumab bifunctional proteins P-0536, P-0546, P-0559, and P-0560 along with IL-2 variant Fc fusion protein P-0511 were administered to mice, and their ability to preferentially proliferate and expand regulatory T cells (CD4+CD25+FoxP3+ T cells) over effector T cells and NK cells were determined in vivo.
(§2) Female C57/BL6 mice (7-week old) were received from Charles River Laboratory and acclimated in house for at least 7 days before the study. Vehicle (PBS) and 15 nmol/kg each test compounds were subcutaneously administered to mice on day 0. Peripheral blood samples were collected into heparin-treated tubes on days 2, 4 and 8 post-treatment. Each group contained 5 mice and baseline blood was collected 3 days prior to the treatment (day −3).

[3] = test system: CD4+ Tconv, activated CD4+ T, CD8+ T and NK cells; test: Effector T cell and NK cell proliferation and expansion in mice, bifunctional constructs (Example 17); format: in vivo, mouse; conditions: 15 nmol/kg single s.c.
Experimental: as §1, §2

[4] = test system: CD4+/Foxp3+/CD25+ Treg, CD4+/Foxp3-/CD25+ Teff and CD4+/Foxp3-/CD25- naive T cells; test: STAT5 phosphorylation in three CD4+ T cell subsets (Treg, CD4 effector, CD4 naive), human PBMC; format: cell-based
Description: In addition to being assessed for their ability to differentially stimulate Stat5 phosphorylation in CD4 positive Treg (CD4+/Foxp3+/CD25^high) versus Tconv (CD4+/Foxp3−/CD25^low) cells, two variants, P-0511 and P-0512, were further assayed for their ability to stimulate other effector T and NK cells, including CD4 positive Teff (CD4+/Foxp3-/CD25+), CD8 cytotoxic T effector and NK cells in comparison to wild-type IL-2 (P-0250) and three IL-2 benchmark molecules containing V91K, N88R, N88D respectively.
After human PBMC Cells were treated with serial dilutions of test compounds, fixed and permeabilized, washed, and stained with a mixture of anti-CD25-PE, anti-FOXP3-APC, anti-pSTAT5-FITC, and anti-CD4-PerCP-Cy5.5 antibodies, the flow cytometry analysis was gated into CD4+/Foxp3+/CD25+, CD4+/Foxp3−/CD25+, CD4+/Foxp3−/CD25− groups for the Treg, CD4 effector, and CD4 naive T cell subsets, respectively. Data are expressed as a percent of pStat5 positive cells in gated population and illustrated in FIG. 9.

CD8+ T cells [5] = test: CD8+ T cell proliferation, CFSE dilution, human PBMC; format: cell-based; conditions: 5 or 7 days incubation
Experimental: (§3) Further, P-0511 and P-0512 were tested for their ability to stimulate NK and CD8+ T cells proliferation in comparison with the wild type and benchmark molecules. Intracellular fluorescent label carboxyfluorescein diacetate succinimidyl ester (CFSE) method was utilized. Briefly, human PBMC (1×10^5 cells/well) were labeled with CFSE, plated onto 96-well plates, and incubated with increasing concentrations of different IL-2 compounds. Cells were then harvested after 5 or 7 days of incubation and stained with either anti-CD56-APC antibody for NK cells or anti-CD8-APC antibody for CD8+ T cells; and analyzed by flow cytometry. Data are expressed as a percent of divided cells and illustrated in FIG. 10A for CD8+ T cell proliferation and FIG. 10B for NK cell proliferation.

NK cells [6] = test: NK cell proliferation, CFSE dilution, human PBMC; format: cell-based; conditions: 5 or 7 days incubation
Experimental: as §3

Treg cells [7] = test: Treg proliferation and expansion in mice after a single subcutaneous injection (Example 9); format: in vivo, mouse; conditions: 0.3 mg/kg single s.c., C57/BL6 mice
Experimental: (§4) IL-2 variant Fc fusion proteins were administered to mice and their ability to preferentially proliferate and expand regulatory T cells (CD4+CD25+FoxP3+ T cells) over effector T cells and NK cells were determined in vivo.
(§5) Female C57/BL6 mice (7-week old) were received from Charles River Laboratory and acclimated in house for at least 7 days before the study. Vehicle (PBS), 0.3 mg/kg of each test compounds, or IL-2 benchmark compounds were subcutaneously administered to mice on day 0. Peripheral blood samples were collected into heparin-treated tubes on days 3, 5 and 7 post-treatment. Each group contained 6 mice and baseline blood was collected 2 days prior to the treatment (day −2). After red blood cell lysis, total viable mononuclear blood cells were counted by trypan blue dead cell exclusion method and proceeded to intracellular staining for immune cell phenotype and Ki67 proliferation markers using flow cytometric analysis. Cells were stained separately with two panels of antibodies as listed: 1) anti-mouse Foxp3-FITC, Ki67-PE, anti-mouse CD25-APC and anti-mouse CD4-Percpcy5.5 (1:50 dilution) for CD4+T-regulatory cells (Treg); 2) anti-mouse CD3-FITC, Ki67-PE, anti-mouse CD335-APC and anti-mouse CD8-Percpcy5.5 (1:50 dilution) for CD8+T and NK cells.

[8] = test system: CD4+ Tconv cells, CD8 T cells and NK cells; test: Effector T cell and NK cell proliferation and expansion in mice after a single subcutaneous injection (Example 9); format: in vivo, mouse; conditions: 0.3 mg/kg single s.c., C57/BL6 mice
Experimental: as §4, §5

Treg cells [9] = test: Treg pharmacodynamics in mice after repeated administration Q3D (Example 11); format: in vivo, mouse; conditions: 0.3 mg/kg s.c.
Experimental: Female Balb/C mice (7-week old) were acclimated in house for 5-7 days before the study. Vehicle (PBS), 0.3 mg/kg of P-0511, P-0512, P-0531, or Benchmark-1 compound were subcutaneously administered to mice (n=5/group) on days 0, 3, and 6. On days 3 and 9, three days after the first injection and multiple (3) injections, respectively, peripheral blood was collected. Based on earlier in vivo experiments, Treg cell activation, proliferation, and expansion were expected to peak on day 3, and thus three days post injection was selected for data collection and analysis. Changes in blood lymphocyte activation, proliferation, and expansion were measured by flow cytometry. P-0531 is the S125I equivalent of the wild type IL-2 fusion protein. The Benchmark-1 contains V91K mutation.

CD4+ T cells = test: Ki67 expression on CD4+ T cells, human PBMC, flow cytometry; format: cell-based
Description: (§6) Exemplary IL-2 variant Fc fusion protein P-0573 was further characterized for induction of Ki-67 expression by flow cytometry.

CD8+ T cells [10] = test: Ki67 expression on CD8+ T cells, human PBMC, flow cytometry; format: cell-based
Description: as §6

NK cells [11] = test: Ki67 expression on NK cells, human PBMC, flow cytometry; format: cell-based
Description: as §6

## P-0560: Tocilizumab IL-2 D20Q/S125I monovalent fusion, SEQ ID NOs 253 + 254 + 266
[1]
  activity profile / selectivity window Treg over CD4+ Tconv (in words): selective activation of Treg cells over CD4+ Tconv cells
Treg cells [2]
  Treg/Tconv ratio (Ki67 stimulation, cell counts): most beneficial Treg/Tconv ratio
  expression of CD25 and Foxp3 on Treg cells: highest expression of CD25
  potency in inducing Treg cell proliferation and expansion in vivo (in words): highest potency
[3]
  change of the activated CD4+ T cells: slight increase

## P-0512: IL-2 L19H/S125I/Q126K Fc fusion, SEQ ID NO: 214
[1]; Isoleucine-125 constructs
  Treg Selectivity: Yes
[4]
  pSTAT5 activity profile in Treg, Teff and naive CD4 T cell subsets (in words): comparable activity profile to Benchmark-1
CD8+ T cells [5]
  potency in stimulating CD8+ T cell proliferation (in words): comparable activity profile to Benchmark-1
NK cells [6]
  potency in stimulating NK cell proliferation (in words): comparable activity profile to Benchmark-1
Treg cells [7]; all measured time points
  Treg/Tconv ratio (Ki67 stimulation and cell counts): most beneficial Treg/Tconv ratio
Treg cells [7]; days 3, 5, 7
  stimulation of Treg cell proliferation and expansion in vivo (in words): stronger in vivo efficacy
[8]
  Ki67 stimulation on CD8 T cells and NK cells in vivo (in words): mild Ki67 stimulation
  expansion of CD4+ Tconv cells, CD8 T cells or NK cells in vivo: No significant expansion
Treg cells [9]; after three consecutive Q3D treatments
  % Treg over total CD4 T cells or over total lymphocytes: sustained at significantly high levels
Treg cells [9]; repeated dosing Q3D
  Treg cell counts, fold changes relative to PBS and Treg/Tconv ratio: superior capabilities to sustain Treg pool and maintain Treg selectivity

## P-0546: Tocilizumab IL-2 L19H/S125I/Q126E monovalent fusion, SEQ ID NOs 253 + 254 + 256
Treg cells [2]
  Treg/Tconv ratio (Ki67 stimulation, cell counts): most beneficial Treg/Tconv ratio
  expression of CD25 and Foxp3 on Treg cells: highest expression of CD25
  potency in inducing Treg cell proliferation and expansion in vivo (in words): highest potency
[3]
  change of the activated CD4+ T cells: slight increase

## P-0573: IL-2 R38A/P65G/S125I Fc fusion, SEQ ID NO: 247
CD4+ T cells
  induction of Ki67 expression in CD4+ T cells: substantially reduced potency; also recorded: higher potency than Benchmark-4
CD8+ T cells [10]
  induction of Ki67 expression in CD8+ T cells: equally effective
NK cells [11]
  induction of Ki67 expression in NK cells: equally effective

## Benchmark-4: benchmark Fc-IL-2 fusion with IL-2Rα-disrupting triple mutations F42A/Y45A/L72G, SEQ ID NO: 250 [reference compound]
CD8+ T cells [10]
  induction of Ki67 expression in CD8+ T cells: equally effective
NK cells [11]
  induction of Ki67 expression in NK cells: equally effective

Source: patent publication US20220170028A1, “NOVEL INTERLEUKIN-2 VARIANTS AND BIFUNCTIONAL FUSION MOLECULES THEREOF” (Cugene Inc, priority 2019, published 2022)
